Data: patent US11040981B2, “Pyrrolotriazine compounds and methods of inhibiting TAM kinases” (Syros Pharmaceuticals, Inc., priority 2017, dated 2021)

How the values were obtained:
[1] = biological target: T1, FLT3 (Homo sapiens, UniProt P36888); test: TR-FRET kinase activity assay, FLT3; type: biochemical; settings: ATP at Km, 60 minutes
T1 sequence (P36888 27-993): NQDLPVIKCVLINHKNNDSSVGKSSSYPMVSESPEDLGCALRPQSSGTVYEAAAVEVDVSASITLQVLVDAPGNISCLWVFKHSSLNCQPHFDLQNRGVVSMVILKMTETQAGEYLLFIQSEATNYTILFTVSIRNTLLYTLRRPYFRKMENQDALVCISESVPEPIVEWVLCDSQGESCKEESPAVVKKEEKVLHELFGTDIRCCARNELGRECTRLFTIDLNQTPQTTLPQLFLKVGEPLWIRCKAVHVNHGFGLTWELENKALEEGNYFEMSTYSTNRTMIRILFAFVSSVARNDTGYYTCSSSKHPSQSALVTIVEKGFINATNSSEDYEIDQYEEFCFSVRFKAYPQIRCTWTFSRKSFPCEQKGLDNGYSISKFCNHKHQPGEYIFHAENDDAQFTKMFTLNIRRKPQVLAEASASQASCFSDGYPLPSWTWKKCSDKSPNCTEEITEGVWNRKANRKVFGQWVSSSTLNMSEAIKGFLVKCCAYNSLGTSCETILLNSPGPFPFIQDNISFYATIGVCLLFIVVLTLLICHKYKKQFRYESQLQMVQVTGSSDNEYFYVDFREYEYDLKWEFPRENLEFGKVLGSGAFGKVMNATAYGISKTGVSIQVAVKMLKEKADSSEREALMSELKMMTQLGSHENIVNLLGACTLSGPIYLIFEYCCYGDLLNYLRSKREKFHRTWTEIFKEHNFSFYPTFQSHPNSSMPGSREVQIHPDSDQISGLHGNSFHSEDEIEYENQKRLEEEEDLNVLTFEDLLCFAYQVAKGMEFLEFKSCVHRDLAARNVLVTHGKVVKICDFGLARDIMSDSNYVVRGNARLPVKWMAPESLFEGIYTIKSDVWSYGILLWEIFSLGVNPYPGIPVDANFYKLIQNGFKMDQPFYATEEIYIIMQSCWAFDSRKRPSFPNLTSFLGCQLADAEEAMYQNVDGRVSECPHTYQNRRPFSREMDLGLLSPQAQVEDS
Protocol: (§1) IC50 values for compound inhibition of AXL, FLT3, MERTK and TYRO3 activity were determined by using a TR-FRET activity assay. A polypeptide substrate with a fluorescent label is phosphorylated on a tyrosine by each enzyme, where the now phosphorylated product is bound by a Europium-labeled antibody specific to that phosphorylation site. The proximity between the antibody and the substrate gives a signal known as TR-FRET. As the enzyme is inhibited by compound, less phosphorylated peptide product is made causing a decrease in overall signal.
(§2) Activity assays were performed in a 384-well, small volume, black microplates in an active enzyme volume of 10 μL and final developed volume of 20 μL. Final assay conditions are 50 mM HEPES pH 7.5, 10 mM MgCl2, 1 mM EGTA, 0.01% Brij 35 and 1 mM DTT all at RT. Enzyme, substrate labeled peptide and compound are mixed, and then the reaction is initiated with the addition of ATP at Km concentration for each enzyme. The reaction is allowed to run 60 minutes and then quenched with a 12.5 mM EDTA (ethylenediamine tetraacetic acid) solution. The plate is then developed with the addition of Europium labeled antibody for a final volume of 20 μL and is then incubated for 30 minutes in darkness. Plates are read in a Pherastar plate reader. Data is analyzed in GraphPad PRISM.
(§3) The results of these assays are shown in Table 1, below, wherein “No.” designates compound number (FIG. 1); “A” represents a value of ≤100 nM; “B” a value of >100 nM and ≤1 μM; “C” a value of >1 μM and ≤10 μM; “D” a value of >10 μM; “ND” is not determined. The ratio of Mer to FLT3 is calculated as follows: FLT3 IC50/Mer IC50. “+” represents a ratio of >2.0 and <10; “++” represents a ratio of between 10 and 100; and “+++” represents a ratio of >100.

[2] = biological target: T2, MERTK (Homo sapiens, UniProt Q12866); test: TR-FRET kinase activity assay, MERTK; type: biochemical; settings: for IC50: TR-FRET activity assay, ATP at Km, 60 minutes, read-out: Mer IC50; for FLT3/Mer ratio (FLT3 IC50/Mer IC50): ratio of Mer to FLT3: FLT3 IC50/Mer IC50
T2 sequence (Q12866 21-999): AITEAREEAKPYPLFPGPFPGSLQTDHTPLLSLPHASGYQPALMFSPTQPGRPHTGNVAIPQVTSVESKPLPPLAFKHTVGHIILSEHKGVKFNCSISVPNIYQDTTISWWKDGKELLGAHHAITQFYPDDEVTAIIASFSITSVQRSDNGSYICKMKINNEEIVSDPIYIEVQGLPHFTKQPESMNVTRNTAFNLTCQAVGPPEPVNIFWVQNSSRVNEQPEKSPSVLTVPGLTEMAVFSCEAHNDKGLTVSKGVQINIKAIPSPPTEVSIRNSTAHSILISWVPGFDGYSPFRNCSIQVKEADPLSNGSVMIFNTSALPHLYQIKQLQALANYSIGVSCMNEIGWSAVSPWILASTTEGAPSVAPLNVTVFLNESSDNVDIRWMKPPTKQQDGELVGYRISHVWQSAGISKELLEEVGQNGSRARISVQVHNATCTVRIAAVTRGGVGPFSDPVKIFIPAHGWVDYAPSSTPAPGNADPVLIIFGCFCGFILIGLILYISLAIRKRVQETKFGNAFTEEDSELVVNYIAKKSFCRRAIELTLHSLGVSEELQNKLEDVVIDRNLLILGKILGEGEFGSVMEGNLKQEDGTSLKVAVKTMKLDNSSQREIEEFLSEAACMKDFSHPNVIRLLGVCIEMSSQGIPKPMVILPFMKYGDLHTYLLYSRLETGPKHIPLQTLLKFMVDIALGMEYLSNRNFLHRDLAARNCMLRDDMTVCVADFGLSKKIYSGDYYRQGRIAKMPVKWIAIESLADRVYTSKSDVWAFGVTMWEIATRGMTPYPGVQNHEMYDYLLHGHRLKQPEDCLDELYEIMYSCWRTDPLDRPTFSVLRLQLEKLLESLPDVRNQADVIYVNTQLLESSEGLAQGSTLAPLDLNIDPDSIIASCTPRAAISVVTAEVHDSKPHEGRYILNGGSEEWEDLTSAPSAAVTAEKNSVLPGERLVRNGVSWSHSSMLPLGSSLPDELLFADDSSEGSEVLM
Protocol: as §1, §2, §3

| SMILES | IC50 [1] | IC50 [2] | FLT3/Mer ratio (FLT3 IC50/Mer IC50) [2] |
| --- | --- | --- | --- |
| CCCCCC(C)Nc1ncc2c(C3=CCC(C(=O)N4CCOCC4)CC3)cc(C3CCC(O)CC3)n2n1 (mixture of isomers) [Compound 110] | 100 to 1000 nM | ≤ 100 nM | ++ (“++” represents a ratio of between 10 and 100) |
| CCCCC[C@H](C)Nc1ncc2c(-c3ccc(CN4CCN(C)CC4)cc3)cc([C@H]3CC[C@H](O)CC3)n2n1 [Compound 104] | 100 to 1000 nM | ≤ 100 nM | ++ (“++” represents a ratio of between 10 and 100) |
| CCCCC[C@H](C)Nc1ncc2c(-c3ccc(CN4CCN(C)CC4)cc3)cc([C@H]3CC[C@@H](O)CC3)n2n1 [Compound 105] | 100 to 1000 nM | ≤ 100 nM | + (“+” represents a ratio of >2.0 and <10) |
| CCCCC[C@H](C)Nc1ncc2c(NC3CCN(C)CC3)cc([C@H]3CC[C@H](O)CC3)n2n1 [Compound 107] | 100 to 1000 nM | ≤ 100 nM | +++ (“+++” represents a ratio of >100) |
| CCCCC[C@H](C)Nc1ncc2c([C@H]3CC[C@H](C(=O)N4CCOCC4)CC3)cc([C@H]3CC[C@H](O)CC3)n2n1 [Compound 108] | 100 to 1000 nM | ≤ 100 nM | +++ (“+++” represents a ratio of >100) |
| CCCCC[C@H](C)Nc1ncc2c([C@H]3CC[C@@H](C(=O)N4CCOCC4)CC3)cc([C@H]3CC[C@H](O)CC3)n2n1 [Compound 109, ((cis)-4-(2-((S)-heptan-2-ylamino)-7-((trans)-4-hydroxycyclohexyl)pyrrolo[2,1-f][1,2,4]triazin-5-yl)cyclohexyl)(morpholino)methanone] | 100 to 1000 nM | ≤ 100 nM | ++ (“++” represents a ratio of between 10 and 100) |
| COCC(C)Nc1ncc2c(-c3ccc4nccn4c3)cc(C3CCC(O)CC3)n2n1 (stereo not drawn) [Compound 193] | 1000 to 10000 nM | ≤ 100 nM | +++ (“+++” represents a ratio of >100) |
| COCC(C)Nc1ncc2c(-c3ccc(-c4nnc(C)o4)cc3)cc(C3CCC(O)CC3)n2n1 (stereo not drawn) [Compound 198] | 100 to 1000 nM | ≤ 100 nM | +++ (“+++” represents a ratio of >100) |
| C[C@@H](CC(F)(F)F)Nc1ncc2c(-c3ccc(CN4CCOCC4)cc3)cc([C@H]3CC[C@H](O)CC3)n2n1 [Compound 203] | ≤ 100 nM | ≤ 100 nM | ++ (“++” represents a ratio of between 10 and 100) |
| C[C@H](Nc1ncc2c(-c3ccc(CN4CCOCC4)cc3)cc([C@H]3CC[C@H](O)CC3)n2n1)[C@H]1CCCO1 [Compound 204] | 1000 to 10000 nM | 100 to 1000 nM | ++ (“++” represents a ratio of between 10 and 100) |
| COC[C@H](C)Nc1ncc2c(-c3cnn(C(C)(C)C)c3)cc([C@H]3CC[C@H](O)CC3)n2n1 [Compound 206] | 1000 to 10000 nM | ≤ 100 nM | +++ (“+++” represents a ratio of >100) |
| COC[C@H](C)Nc1ncc2c(-c3cnn(C(F)F)c3)cc([C@H]3CC[C@H](O)CC3)n2n1 [Compound 207] | 100 to 1000 nM | ≤ 100 nM | +++ (“+++” represents a ratio of >100) |

Further lines, results first:

| IC50 [1] | IC50 [2] | FLT3/Mer ratio (FLT3 IC50/Mer IC50) [2] | SMILES |
| --- | --- | --- | --- |
| 1000 to 10000 nM | ≤ 100 nM | +++ (“+++” represents a ratio of >100) | COC[C@H](C)Nc1ncc2c(-c3cncc(S(C)(=O)=O)c3)cc([C@H]3CC[C@H](O)CC3)n2n1 [Compound 194] |
| 1000 to 10000 nM | ≤ 100 nM | +++ (“+++” represents a ratio of >100) | COC[C@H](C)Nc1ncc2c(-c3cncc(F)c3)cc([C@H]3CC[C@H](O)CC3)n2n1 [Compound 195] |
| 100 to 1000 nM | ≤ 100 nM | +++ (“+++” represents a ratio of >100) | COC[C@H](C)Nc1ncc2c(-c3ccc(C(=O)N4CCCC4)cc3)cc([C@H]3CC[C@H](O)CC3)n2n1 [Compound 196] |
| 100 to 1000 nM | ≤ 100 nM | +++ (“+++” represents a ratio of >100) | COC[C@H](C)Nc1ncc2c(-c3ccc(C(=O)N4CCS(=O)(=O)CC4)cc3)cc([C@H]3CC[C@H](O)CC3)n2n1 [Compound 197] |
| 1000 to 10000 nM | ≤ 100 nM | +++ (“+++” represents a ratio of >100) | COC[C@H](C)Nc1ncc2c(-c3cncc(C#N)c3)cc([C@H]3CC[C@H](O)CC3)n2n1 [Compound 201] |
| 100 to 1000 nM | ≤ 100 nM | +++ (“+++” represents a ratio of >100) | CC(Nc1ncc2c(-c3ccc(CN4CCOCC4)cc3)cc(C3CCC(O)CC3)n2n1)C(F)(F)F (stereo not drawn) [Compound 202] |
| 1000 to 10000 nM | ≤ 100 nM | +++ (“+++” represents a ratio of >100) | C[C@H](Nc1ncc2c(-c3ccc(CN4CCOCC4)cc3)cc([C@H]3CC[C@H](O)CC3)n2n1)[C@@H]1CCCO1 [Compound 205] |
